Tested on: TNFa release from stimulated peripheral blood monocytes (PBMCs)
Assay: Inhibition by ethyl pyruvate of TNFa release from LPS-stimulated PBMCs (ELISA)
Type: cell-based
Conditions: for TNFa release, LPS (5 ug/ml) / TNFa release, LPS (10 ug/ml): ELISA; for inhibition at 5000 µM / inhibition at 10000 µM / inhibition at 25000 µM / inhibition at 50000 µM: PBMC
Experimental: The Effect of Alpha-Ketoalkanoic Acid on TNFa Release from Stimulated Peripheral Blood Monocytes (PBMCS)
The cells were cultured in RPMI 1640 supplemented with 1% serum albumin for approximately 12 hours before treating with LPS (Lipopolysaccharide from E. Coli) at increasing concentrations to induce TNFa release. […] The effects of ethyl pyruvate (EP) on PBMC=s macrophages cultures with 5-10 micrograms of LPS was used to stimulate relase of TNFa.
Inhibition by Ethyl Pyruvate of TNFa Release (Measured via ELISA Assay)

CCOC(=O)C(C)=O [EP, ethyl pyruvate]
TNFa release, LPS (5 ug/ml) (EP 5 mM, LPS 5 ug/ml): 450 arbitrary fluorescence units | TNFa release, LPS (10 ug/ml) (EP 5 mM, LPS 10 ug/ml): 480 arbitrary fluorescence units | TNFa release, LPS (5 ug/ml) (EP 10 mM, LPS 5 ug/ml): 275 arbitrary fluorescence units | TNFa release, LPS (10 ug/ml) (EP 10 mM, LPS 10 ug/ml): 310 arbitrary fluorescence units | TNFa release, LPS (5 ug/ml) (EP 25 mM, LPS 5 ug/ml): 201 arbitrary fluorescence units | TNFa release, LPS (10 ug/ml) (EP 25 mM, LPS 10 ug/ml): 190 arbitrary fluorescence units | TNFa release, LPS (5 ug/ml) (EP 50 mM, LPS 5 ug/ml): 200 arbitrary fluorescence units | TNFa release, LPS (10 ug/ml) (EP 50 mM, LPS 10 ug/ml): 180 arbitrary fluorescence units | Inhibition of TNFa release (in words) (LPS & EP incubated in the cultures, different concentrations): effective inhibitor of TNFa release | inhibition at 5000 µM (EP 5 mM, LPS 5 ug/ml): 12% | inhibition at 5000 µM (EP 5 mM, LPS 10 ug/ml): 6% | inhibition at 10000 µM (EP 10 mM, LPS 5 ug/ml): 47% | inhibition at 10000 µM (EP 10 mM, LPS 10 ug/ml): 59% | inhibition at 25000 µM (EP 25 mM, LPS 5 ug/ml): 51% | inhibition at 25000 µM (EP 25 mM, LPS 10 ug/ml): 75% | inhibition at 50000 µM (EP 50 mM, LPS 5 ug/ml): 51% | inhibition at 50000 µM (EP 50 mM, LPS 10 ug/ml): 76%

Source: patent US20090012163A1, “Compositions containing Mg/Zn/F-CaP plus inhibitors of pro-inflammatory cytokines (alpha ketoalkanoic acid compound) for osteoporosis prevention, therapy and treatment of bone diseases” (priority 2007, published 2009)
